Test results from publication PMC10112232, “Comparison of Toxicities among Different Bumped Kinase Inhibitor Analogs for Treatment of Cryptosporidiosis” (Antimicrobial Agents and Chemotherapy, 2023).
Where two headings read alike, the source gives them in different places.

Tests used:
[1] = Plasma concentrations and clinical toxicity signs in treated neonatal calves; assay type: in vivo, calf; details: for Cmax: bovine, plasma
Method: (§1) There were also improvements in the treated calves in both fecal volume and consistency, urine output, weight gain and daily clinical scores compared to control calves (Fig. S3). […] Fecal volume, fecal consistency, and clinical scores were improved for all treatment groups compared to controls, but these improvements were delayed for the 1 mg/kg group.
(§2) BKI-1841 was dosed at 5, 2, and 1 mg/kg BID for 3 days and 2 mg/kg QD for 4 days (Fig. 5, Fig. S4). […] Urine output was consistent for all groups, including controls, and fecal volume and consistency were improved for all groups over controls (Fig. S4). […] This occurred to some degree with all dosing regimens, developing with the fewest doses at 5 mg/kg BID. With the lowest dose of 1 mg/kg BID, the onset of dropped pasterns began after the third dose and continued until self-resolving 2 days after dosing concluded. All signs of dropped pasterns were gone by the end of the experiment on day 10 postinfection.

C. parvum = assay: Efficacy in neonatal calves infected with C. parvum; assay type: in vivo
Method: as §1
Total oocyst excretion determined by RT-PCR concentration and total by fecal weight shed per day. (A) Oocyst excretion per day after treatment with BKI-1770. […] (C) Oocyst excretion per day after treatment with BKI-1841. (D) Cumulative total oocyst excretion for days 3 through 10 after treatment with BKI-1841. […] BKI-1841 BID treatments were administered on days 2 through 4 and QD treatments were administered on days 2 through 5. […] QD = once daily, BID = twice daily.
as §2
(§3) Methods for synthesis of BKIs ([17], [23]), efficacy against Nluc expressing C. parvum in infected adult IFN-γ KO mice ([6], [9]), in vivo mouse GI tract tissue exposure by LC/MS-MS analysis ([18], [28]), PK analysis of mouse plasma and brain tissue BKI concentrations by LC/MS-MS analysis ([29]), in vivo rat and dog cardiotoxicity screen ([30]), efficacy against IOWA-II strain C. parvum in infected neonatal calves ([13]), efficacy against C. hominis in infected piglets ([12]), in vitro inhibition of C. parvum CDPK1 (CpCDPK1) and human tyrosine kinase SRC (HsSRC) activity ([31]), in vitro inhibition of hERG ([32]), Nluc expressing C. parvum in vitro growth inhibition in infected HCT-8 cells ([6]), in vitro cytotoxicity in CRL-8155 and HepG2 cells ([29]), and mouse locomotor activity box ([33], [34]) have all been previously described. Analytes were measured by LC/MS-MS on an Acquity ultra performance liquid chromatography (UPLC) system in tandem with a Xevo TQ-S mass spectrometer (Waters, Milford, MA, USA).

[2] = 14-day multidose rat toxicity study; assay type: in vivo; details: rats
Method: A control group of male and female rats were administered vehicle only for controls. […] Observations of feeding and general health were made twice daily. Clinical assessments were made at 1 h after each treatment. Blood was collected for hematology and blood chemistry before the first dose and prior to euthanasia. Necropsy and histology of organs (Liver, heart, lung, kidney, spleen, thymus, brain, spinal cord, nerves of the front and back legs, including muscle, bone marrow femur, stomach, small and large intestine, including lymph nodes, and femur and sternum, including epiphyseal plates, distal hind limb, and thyroid gland) were performed after euthanasia.

[3] = Pharmacokinetics in mice (plasma, brain, GI tissues) by LC/MS-MS; assay type: in vivo, mouse; details: for Kp: mouse, brain, read-out: brain penetration (brain tissue to plasma area-under-the-curve)
Method: For evaluation of its suitability for in vivo dosing, BKI-1841 was also tested in mice for plasma exposure after a single dose (Fig. 2). […] A dose of 25 mg/kg BKI-1841 was used to evaluate brain penetration over 4 h using the same method (Fig. 2).
as §3

[4] = Multidose mouse toxicity, tibial epiphyseal growth plate; assay type: in vivo; details: for gross signs of toxicity / width of the tibia epiphyseal growth plate vs vehicle controls: 3 week old mice, oral 150 mg/kg QD for 7 days; for width of the tibia epiphyseal growth plate vs vehicle controls: n = 3
Method: The recurring presence of toxicity in calves manifesting as dropped pasterns, as well as the observations of bone toxicity in rats, led to the exploration of possible bone toxicity screening in mice to allow for screening prior to dosing in larger animals. To test for effects to the growth plate in developing bones, 3 week old mice were dosed for 7 days QD and euthanized 24 h after the final dose. The right and left tibia were dissected from each mouse and stained with AgNO3 to visualize the growth plate and measurements across the widths compared to vehicle-only treated controls. […] The remaining two mice for this treatment were immediately euthanized and their tibias extracted early on day 4.
Mouse toxicity testing and evaluation of the tibial epiphyseal plate have been previously described ([18], [38]) and were performed with some modifications. Briefly, 3 week old BALB/c mice (n = 3) were dosed orally once daily for 7 days. Mice were euthanized along with vehicle treated controls by cardiac puncture for collection of blood for analysis. Necropsy, obtaining blood for serum chemistries, histology of organs (brain, heart, lungs, spleen, liver, stomach, small intestine, large intestine and kidney), and removal of tibias were performed within 24 h of the final dose. Examination of organ histology included routine H&E and Oil-Red O (lipid)-stained organs from the treated mice and a set of untreated matched controls. Pathological examination was performed by a board certified pathologist who was blinded to the treatment and control group identities. Tibias were removed and immediately placed in dH2O for a minimum of 1 h. Using a fresh number 11 scalpel blade, a quick sagittal cut was made across the femoral condyle opposite the fibula, and a second cut was made across the second femoral condyle separating the fibula and tibia. The tibias were then immersed in acetone for 1 h to dehydrate. Dehydrated tibias were washed in dH2O for 2 min, then soaked in 1.5% AgNO3 for 1 min in a container protected from light. Tibias were then rinsed in dH2O for 2 min and exposed to strong light for 10 sec. Stained tibias were stored in 70% ethanol for >10 min before examining the growth plates at ×40 magnification using an Amscope stereo microscope with a mounted camera. Photos were taken using the Amscope image capture software. A calibration slide was used to establish a μm to pixel ratio of 1:1.184. Using the Measurement Tool, 10 measurements were taken across each epiphyseal plate by orienting the cursor at right angles from the growth plate borders by two different researchers (one set unblinded; one set blinded) and average width was assigned to each tibia from each animal.

[5] = Mouse locomotor activity box; assay type: in vivo; details: mice, 150 mg/kg QD for 5 days; for distance traveled / stereotypic horizontal activity / vertical rearing activity: vs controls
Method: BKIs –1770, -1841, and -1708 were tested in the mouse locomotor activity box to screen for possible neurological issues (Fig. S7). All three BKIs were dosed at 150 mg/kg QD for 5 days.
as §3

With `CCOc1ccc2cc(-c3nn(C(C)(C)CCO)c(N)c3C(N)=O)ccc2c1` [BKI-1770] the “hyperflexion of the limbs (dropped pasterns)” value ([1]; 5 mg/kg BID for 5 days) was “observed in two of the 5 mg/kg calves”, the bloody diarrhea ([1]; 5 mg/kg BID, one calf) was “some bloody diarrhea” and the Cmax ([1]; 3 mg/kg BID, at 4 h post dose 1, read-out: plasma observed Cmax) was 3.4 ± 0.06 µM. It also gave a Cmax ([1]; 5 mg/kg BID, at 4 h post dose 5, read-out: plasma observed maximum concentration (Cmax)) of 10.3 ± 5.4 µM, a total oocysts excreted (C. parvum; 5 mg/kg BID for 5 days (n = 5), days 3 to 10 postinfection, control 1.62E10) of 2.58E9 oocysts and a minimal efficacious dose (C. parvum; BID) of 3 mg/kg. The “total oocyst excretion per day vs controls” value (C. parvum; all dosed groups (5, 3, 2, 1 mg/kg BID for 5 days)) was “significant differences”, the plasma concentration ([2]; 15 mg/kg group) was 2.4 µM and the plasma concentration ([2]; 375 mg/kg group) was 11.8 µM. For the same molecule, the toxicity findings ([2]; oral 15 mg/kg QD, 14 days) was “no signs of toxicity”, the toxicity findings ([2]; oral 75 mg/kg QD, 14 days) was “some signs of bone toxicity, including thickened epiphyseal plates and increased spongiosa” and the toxicity findings ([2]; oral 375 mg/kg QD) was “euthanized after 7 doses due to extreme signs of toxicity”. The “time to depletion in plasma to submicromolar concentrations” value ([3]; mice, after oral dosing) was 1 to 2 h, the ileum tissue concentration ([3]; mice, single 30 mg/kg oral dose, through 12 h) was over 1 µM and the Kp ([3]; mice, single 30 mg/kg oral dose) was 0.1. The “gross signs of toxicity” value [4] was “no gross signs of toxicity”, the “width of the tibia epiphyseal growth plate vs vehicle controls” value [4] was “significant (P < 0.05) increases” and the “overall effect on locomotor activity” value [5] was “depression in movement”. The distance traveled [5] was “significant (P < 0.05) decrease in distance traveled from 20 to 60 min”, the stereotypic horizontal activity [5] was “increased horizontal activity from 0 to 40 min” and the vertical rearing activity [5] was “decreased vertical activity throughout the study”.

In the case of `CCOc1ccc2cc(-c3nn(C4CCOCC4)c(N)c3C(N)=O)ccc2n1` [BKI-1841], the predose plasma concentration ([1]; 1 mg/kg BID, last day of treatment) is reported as 1.3 ± 0.1 µM, the ataxia ([1]; 5 mg/kg BID, during the 3 days of dosing) is reported as “signs of ataxia” and the “hyperflexion of the limbs (dropped pasterns)” value ([1]; all dosing regimens (5, 2, 1 mg/kg BID 3 days; 2 mg/kg QD 4 days)) is reported as “all calves dosed with BKI-1841 showed signs of hyperflexion of the limbs seen as dropped pasterns”. The safety index ([1]; dropped pasterns at lowest dose tested (1 mg/kg BID)) was under 1, the “total oocyst excretion reduction” value (C. parvum; 1 mg/kg BID for 3 days) was “little reduction” and the “total oocyst excretion per day vs controls” value (C. parvum; 1 mg/kg group) was “no significant difference”. The “total oocyst excretion reduction” value (C. parvum; 5 mg/kg BID for 3 days and 2 mg/kg BID given for 3 or 4 days) was 2 to 4 log, the “total oocyst excretion per day vs controls” value (C. parvum; 5 mg/kg and both 2 mg/kg groups) was “significant differences” and the plasma exposure ([3]; for more than 6 h after a single 25 mg/kg dose in mice) was over 1 µM. The signs of toxicity ([3]; mice, single 25 mg/kg dose) was “no signs of toxicity”, the Kp ([3]; mice, single 25 mg/kg oral dose, over 4 h) was 0.27 and the “gross signs of toxicity” value [4] was “no gross signs of toxicity”. The “width of the tibia epiphyseal growth plate vs vehicle controls” value [4] was “did not show significant increases”, the “blood chemistry and histology vs control animals” value ([4]; mice (data not shown)) was “no abnormalities or indications of toxicity” and the “overall effect on locomotor activity” value [5] was “depression in movement”. For the same molecule, the distance traveled [5] was “significant (P < 0.05) decrease”, the stereotypic horizontal activity [5] was “significant (P < 0.05) decrease” and the vertical rearing activity [5] was “significant (P < 0.05) decrease”.
